Reference: US20240101538A1, “PROTEIN-PROTEIN INTERACTION MODULATORS OF AURORA KINASE A AND THEIR USE IN THE PREVENTION AND/OR TREATMENT OF CANCER” (EBERHARD KARLS UNIVERSITÄT TÜBINGEN, priority 2020, published 2024)
pIC50: −log10 of the molar value. Like-named read-outs stand apart in the source and are kept apart here.

Key:
NMP53^−/− cells = assay: Colony formation assay on NMP53^−/− cells; format: cell-based, murine; conditions: colony formation assay; for minimal effective concentration: 5 days, read-out: EC (NMP53^−/−)
Excerpt: (§1) To evaluate the effect of small molecules equipped with R-spine interacting moieties, the inventors screened a focused library of proprietary p38a MAP-Kinase inhibitors which were equipped with R-spine interacting pharmacophores. To this end, the inventors utilized a screening system as developed in Dauch et al.^2 The screening system is based on colony formation assays of cell lines isolated from Nras-driven, Trp53-deficient murine HCCs, whose development is dependent on MYC (NMP53^−/− cells), as well as Nras-driven, Cdkn2a^ARF-deficient murine HCCs, which develop independently of MYC (NMCdkn2a^ARF−/− cells). Importantly, NMP53^−/− cells are sensitive to AURKA inhibitors, which induce a conformational shift in AURKA, whereas NMCdkn2a^ARF−/− are not sensitive to such compounds.
(§2) For Colony Formation Assays, cells were seeded at a density of 50 000 cells per 6 well and next day treated with a 2-fold dilution series of the indicated compounds or the highest corresponding DMSO concentration as control. After 5 days, the cells were fixed with a 10% formaldehyde solution for 30 min, washed once with water, stained with a 0.5% crystal violet solution for 30 min and washed twice with water. The compounds effective concentration (EC) was determined according to the lowest concentration in the dilution series, that inhibited cell growth substantially. The resulting benzamide containing hit structure 1, with a twofold selectivity towards NMP53^−/− cells (effective concentration on NMP53^−/− cells (EC): 2 μM, EC on Cdkn2a^ARF−/−: 4 μM, FIG. 1), served as the inventors' starting point for further compound development.

AURKA = AURKA (Homo sapiens (Human), UniProt O14965); assay: Radioisotope filter binding assay (HotSpotSM; ReactionBiology) for AURKA kinase inhibition; format: biochemical
Excerpt: Table 2 summarizes the EC values of different compounds of this invention determined by colony formation assays on NMP53^−/− and NMCdkn2a^ARF−/− cells, as well as the corresponding IC50 values for the kinase inhibition of AURKA, determined by radioisotope filter binding assay (HotSpotSM; ReactionBiology). Most compounds further show a strong selectivity for NMP53^−/− cells, which is indicated by a lower EC concentration of a particular compound required for inhibiting cell growth of NMP53^−/− cells compared to NMCdkn2a^ARF−/− cells.

NMCdkn2a^ARF−/− cells = assay: Colony formation assay on NMCdkn2a^ARF−/− cells; format: cell-based, murine; conditions: 5 days, read-out: EC (NMCdkn2a^ARF−/−)
Excerpt: as §1, §2

MYC-AURKA interaction = MYC-AURKA interaction (Mus musculus (Mouse), UniProt P97477); assay: Proximity ligation assay (PLA) for MYC and AURKA in NMP53^−/− cells; format: cell-based, murine; conditions: 24 h after treatment
Procedure: To examine whether this MYC degradation is associated with MYC-AURKA PPI disruption, the inventors performed proximity ligation assays (PLA) in NMP53^−/− cells. For Proximity Ligation Assay (PLA), 50 000 cells were seeded on 12 mm glass slides placed in 6 well plates. On the next day, the cells were treated with the indicated compounds or the corresponding DMSO concentration for 2 h (compound 2c [N-(5-((4-(1H-pyrazole-4-yl)benzyl)amino)-2-fluorophenyl)-3-(furan-2-yl)propanamide] and compound 3a [N-(2-fluoro-5-((4-(1-methyl-1H-pyrazole-4-yl)benzyl)amino)phenyl)-3-(furan-2-yl)propanamide]) or 24 h (alisertib) and fixed for 10 min in 100% MeOH at −20° C. The glass slides were removed from the 6 well plates and the cells permeabilized with TBS+0.3% Triton X-100 for 5 min. After washing with PBS and blocking with 5% BSA in TBS+0.05% Tween for 30 min, the slides were incubated with MYC (Abeam ab32072, 1:200) and AURKA (Abcam ab13824, 1:200) specific antibodies in 1% BSA in TBS+0.05% Tween for 120 min at RT and washed 3 times with PBS for 5 min, wherein the MYC/TPX2 and AURKA specific antibodies are derived from a different species. After a 20 min pre-incubation of two PLA probes, directed against either species of the MYC/TPX2 and AURKA specific antibodies, at RT (DUO92001 and DUO92005 Sigma Aldrich, diluted 1:10 in 1% BSA in TBS+0.05% Tween), the slides were incubated with the probes for 60 min at 37° C. in a humidified chamber. The slides were washed 3 times with 1× wash buffer A (Sigma Aldrich DUO82049) for 5 min and incubated with the ligase solution (ligase diluted 1:40 in 5× ligase buffer and ddH2O, Sigma Aldrich DUO92008) for 60 min at 37° C. in a humidified chamber. […] The foci per cell were counted in a way that the cytoplasmic foci are counted to the cell with the closest nucleus (DAPI). Significance was calculated with the GraphPad Prism 8.4.0 software (GraphPad Software, La Jolla, CA) by using the nonparametric Mann Whitney test.

late stage HCC = conditions: patients with late stage HCC, on average; cited from earlier work
[1] = Mus musculus, 120 h, lowest concentration of 2-fold dilution series that inhibited cell growth substantially

Sequence of AURKA (O14965 whole entry): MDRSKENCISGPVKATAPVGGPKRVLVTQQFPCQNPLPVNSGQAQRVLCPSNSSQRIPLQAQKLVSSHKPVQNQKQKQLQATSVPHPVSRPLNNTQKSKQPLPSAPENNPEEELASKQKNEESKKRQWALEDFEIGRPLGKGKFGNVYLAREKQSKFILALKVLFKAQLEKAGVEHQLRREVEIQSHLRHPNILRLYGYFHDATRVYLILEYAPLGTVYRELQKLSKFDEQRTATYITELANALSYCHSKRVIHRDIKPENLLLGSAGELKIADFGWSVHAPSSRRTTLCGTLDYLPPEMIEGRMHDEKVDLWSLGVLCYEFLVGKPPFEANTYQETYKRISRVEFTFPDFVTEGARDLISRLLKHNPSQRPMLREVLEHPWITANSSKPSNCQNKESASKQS
Sequence of MYC-AURKA interaction (P97477 whole entry): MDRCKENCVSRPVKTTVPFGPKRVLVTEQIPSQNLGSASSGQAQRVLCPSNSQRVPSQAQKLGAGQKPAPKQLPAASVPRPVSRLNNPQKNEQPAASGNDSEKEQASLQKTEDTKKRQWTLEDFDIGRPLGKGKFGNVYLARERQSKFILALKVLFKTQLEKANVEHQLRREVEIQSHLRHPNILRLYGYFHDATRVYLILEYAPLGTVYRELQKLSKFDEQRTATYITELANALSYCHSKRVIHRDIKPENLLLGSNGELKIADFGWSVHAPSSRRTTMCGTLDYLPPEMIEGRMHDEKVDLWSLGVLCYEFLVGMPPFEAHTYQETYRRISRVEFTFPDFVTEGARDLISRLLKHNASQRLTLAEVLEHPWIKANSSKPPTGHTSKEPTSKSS

pIC50 (AURKA) | Structure (SMILES) | minimal effective concentration (NMP53^−/− cells; Mus musculus, 120 h) [µM] | minimal effective concentration (NMCdkn2a^ARF−/− cells; Mus musculus, 120 h) [µM] | also measured
5.16 | O=C(CCc1ccccc1)Nc1cc(NCc2ccc(-c3cn[nH]c3)cc2)ccc1F [Compound 2a, N-(5-((4-(1H-pyrazole-4-yl)benzyl)amino)-2-fluorophenyl)-3-phenylpropanamide] |  |  | minimal effective concentration (NMP53^−/− cells; [1]): 0.5 µM; selectivity for NMP53^−/− cells (NMP53^−/− cells; NMP53^−/− versus NMCdkn2a^ARF−/− cells): 4 fold; minimal effective concentration (NMP53^−/− cells): >4 µM; minimal effective concentration (NMCdkn2a^ARF−/− cells): >4 µM; minimal effective concentration (NMCdkn2a^ARF−/− cells; [1]): 2 µM
< 5.00 | O=C(Cc1ccccc1)Nc1cc(NCc2cc(-c3cc4cccnc4[nH]3)ccn2)ccc1F [Compound 18c, N-(5-(((4-(1H-Pyrrolo[2,3-b]pyridin-2-yl)pyridin-2-yl)methyl)amino)-2-fluorophenyl)-2-phenylacetamide] | 0.25 | 0.5 | 
8.10 | O=C(CCc1ccccc1)Nc1cc(NCc2ccc(-c3cn[nH]c3)cc2)ccc1F [Compound 95b, N-(5-((4-(1H-Pyrazol-4-yl)benzyl)amino)-2-fluorophenyl)-3-phenylpropanamide] |  | 2 | minimal effective concentration (NMP53^−/− cells): 0.5 µM
6.27 | Cn1cc(-c2ccc(CNc3ccc(F)c(NC(=O)CCc4ccccc4)c3)cc2)cn1 [Compound 97, N-(2-fluoro-5-((4-(1-methyl-1H-pyrazol-4-yl)benzyl)amino)phenyl)-3-phenylpropanamide] | 0.25 | 1 | 
< 5.00 | Cn1cc(-c2ccc(CNc3ccc(F)c(NC(=O)CCc4ccoc4)c3)cc2)cn1 [Compound 107n, N-(2-fluoro-5-((4-(1-methyl-1H-pyrazol-4-yl)benzyl)amino)phenyl)-3-(furan-3-yl)propanamide] | 0.062 | > 0.25 | 
< 5.00 | Cn1cc(-c2ccc(CNc3ccc(F)c(NC(=O)CCc4cccs4)c3)cc2)cn1 [Compound 107o, N-(2-fluoro-5-((4-(1-methyl-1H-pyrazol-4-yl)benzyl)amino)phenyl)-3-(thiophen-2-yl)propanamide] | 0.125 | 1 | 
< 5.00 | Cn1cc(-c2ccc(CNc3ccc(F)c(NC(=O)CCc4ccsc4)c3)cc2)cn1 [Compound 107p, N-(2-fluoro-5-((4-(1-methyl-1H-pyrazol-4-yl)benzyl)amino)phenyl)-3-(thiophen-3-yl)propanamide] | 0.062 | > 0.25 | 
< 5.00 | Cn1cc(-c2ccc(CNc3ccc(F)c(NC(=O)/C=C/c4ccco4)c3)cc2)cn1 [Compound 107r, (E)-N-(2-fluoro-5-((4-(1-methyl-1H-pyrazol-4-yl)benzyl)amino)phenyl)-3-(furan-2-yl)acrylamide] | 0.062 | > 0.25 | 
< 5.00 | Cn1cc(-c2ccc(CNc3ccc(F)c(NC(=O)C=Cc4ccccc4)c3)cc2)cn1 [Compound 107s, N-(2-fluoro-5-((4-(1-methyl-1H-pyrazol-4-yl)benzyl)amino)phenyl)cinnamamide] | 0.5 | > 1 | 
 | Cc1noc(C)c1-c1ccc(CNc2ccc(F)c(NC(=O)CCc3ccco3)c2)cc1 [Compound 139, N-(5-((4-(3,5-Dimethylisoxazol-4-yl)benzyl)amino)-2-fluorophenyl)-3-(furan-2-yl)propanamide] | 0.5 | 1 | 
 | Nc1n[nH]cc1-c1ccc(CNc2ccc(F)c(NC(=O)CCc3ccco3)c2)cc1 [Compound 144, N-(5-((4-(3-Amino-1H-pyrazol-4-yl)benzyl)amino)-2-fluorophenyl)-3-(furan-2-yl)propanamide] | 0.25 | > 1 | 
 | Cn1cc(-c2ccc(CNc3ccc(F)c(NC(=O)CCc4ccco4)c3)cc2)c(N)n1 [Compound 145, N-(5-((4-(3-Amino-1-methyl-1H-pyrazol-4-yl)benzyl)amino)-2-fluorophenyl)-3-(furan-2-yl)propanamide] | 0.25 | > 1 | 
 | Cn1ncc(-c2ccc(CNc3ccc(F)c(NC(=O)CCc4ccco4)c3)cc2)c1N [Compound 146, N-(5-((4-(5-Amino-1-methyl-1H-pyrazol-4-yl)benzyl)amino)-2-fluorophenyl)-3-(furan-2-yl)propanamide] | 0.125 | > 1 | 
 | Cn1ccc(Nc2ccc(CNc3ccc(F)c(NC(=O)CCc4ccco4)c3)cc2)n1 [Compound 155, N-(2-fluoro-5-((4-((1-methyl-1H-pyrazol-3-yl)amino)benzyl)amino)phenyl)-3-(furan-2-yl)propanamide] | 0.25 | > 1 | 
 | CC(=O)n1cc(-c2ccc(CNc3ccc(F)c(NC(=O)CCc4ccco4)c3)cc2)cn1 [Compound 164, N-(5-((4-(1-Acetyl-1H-pyrazol-4-yl)benzyl)amino)-2-fluorophenyl)-3-(furan-2-yl)propanamide] | 0.125 | > 1 | 
 | NCCn1cc(-c2ccc(CNc3ccc(F)c(NC(=O)CCc4ccco4)c3)cc2)cn1 [Compound 167, N-(5-((4-(1-(2-Aminoethyl)-1H-pyrazol-4-yl)benzyl)amino)-2-fluorophenyl)-3-(furan-2-yl)propanamide] | 0.5 | 1 | 
 | COc1cc(Nc2ncc3c(n2)-c2ccc(Cl)cc2C(c2c(F)cccc2OC)=NC3)ccc1C(=O)O [alisertib, reference compound] |  |  | reduction of the MYC-AURKA interaction compared to DMSO (MYC-AURKA interaction): 60%
 | CNC(=O)c1cc(Oc2ccc(NC(=O)Nc3ccc(Cl)c(C(F)(F)F)c3)cc2)ccn1 [sorafenib] |  |  | prolonged survival (late stage HCC): 2.8 months
